Assay in all cases: DTP human tumour cell line panel, 48 h
Assay [1] deals with HS 578T breast.
The subject of assay [2] is SK-MEL-2 melanoma.
For assay [3], the system named is KM12 colon.
Assay [4] deals with OVCAR-5 ovarian.
Assay [5] concerns A498 renal.
The test system of assay [6] is K-562 leukemia.
For assay [7], the system named is 786-0 renal.
The subject of assay [8] is SNB-75 CNS.
Assay [9] relates to EKVX NSCLC.
Assay [10] deals with HCT-116 colon.

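A five-concentration, 48-hour dose response in 96-well plates underlies each endpoint, interpolated linearly between surrounding concentrations. Here, GI50 denotes the concentration required for 50% inhibition of growth. TGI marks complete inhibition of growth.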

The GI50 is the concentration at which growth is held to half of that of the control. As usually defined, the TGI is the concentration at which net growth stops. For `CCOC(=O)c1nc2cc(C(F)(F)F)ccc2[n+]([O-])c1C`, the GI50 in [1], in assay [2], in assay [3], in assay [4], in assay [5] and in [6] was more than 100 µM throughout. Also, the GI50 in assay [7], in [8], in assay [9] and in assay [10] was more than 100 µM in each case. For the same compound, the TGI in assay [1], in assay [2], in assay [3], in [4], in assay [5] and in assay [6] was more than 100 µM each time. Besides, the TGI in assay [7], in [8], in [9] and in assay [10] was more than 100 µM in each case.

Regarding `CCN1C(=O)N(CC)C2C1NN=c1s/c(=C\c3cccc([N+](=O)[O-])c3)c(=O)n12` (stereo unspecified), the GI50 in [1] is 0.0502 µM; in assay [2], 0.453 µM; in assay [3] it was 0.0404 µM; in assay [4], 0.324 µM; in [5] it was 0.0254 µM; in assay [6], 0.0411 µM. For the same compound, the GI50 was 0.143 µM in assay [7], 0.0378 µM in [8], 0.382 µM in assay [9] and 0.0422 µM in [10]. The TGI in assay [1] was more than 100 µM; in [2] it was more than 100 µM; in assay [3], more than 100 µM; in assay [4] it was more than 100 µM; in [5], 0.0916 µM; in assay [6] it was more than 100 µM. Moreover, the TGI in [7], in assay [8], in assay [9] and in assay [10] was more than 100 µM in each case.

With `COc1ccc(/C(=N/O)c2cc(OC)c(OC)c(OC)c2)c(OC)c1N`, the GI50 in assay [1] is 4.74 µM; in assay [2] it was more than 100 µM; in assay [3] it was 3.27 µM; in assay [5] it was 4.01 µM; in assay [6] it was 3.14 µM; in assay [7] it was 12.7 µM. For the same compound, the GI50 in assay [8] is 2.21 µM; in assay [9] it was 6.64 µM; in [10], 3.41 µM. The TGI in assay [1], in assay [2], in assay [3], in assay [5], in [6] and in assay [7] was more than 100 µM each time. In addition, the TGI in assay [8], in [9] and in assay [10] was more than 100 µM each time.

For the compound `COc1cc(NC(C)CCCN)c2ncccc2c1Sc1ccc(Cl)cc1` (stereo unspecified), the GI50 in [1] was 1.67 µM; in assay [2], 1.85 µM; in assay [3] it was 1.77 µM; in assay [4] it was 1.73 µM; in assay [5], 3.65 µM; in assay [7], 1.89 µM. The GI50 in [8] was 1.7 µM; in [9], 2.14 µM; in assay [10], 1.7 µM. Besides, the TGI in assay [1] turned out to be 3.85 µM; in assay [2], 3.4 µM; in [3] it was 3.27 µM; in assay [4], 3.28 µM; in [5] it was 16.2 µM; in [7], 3.57 µM. In addition, the TGI in assay [8] amounted to 3.42 µM; in assay [9], 4.72 µM; in assay [10], 3.27 µM.

For `N#C/C(=C\c1cccc2cnccc12)N1N=NC2C=CC=CC21` (stereo unspecified), the GI50 in assay [1] was 2.46 µM; in [2], 4.49 µM; in assay [3] it was 2.96 µM; in [4], 4.66 µM; in [5], 1.63 µM; in assay [6] it was 2.85 µM. Further, the figures for the GI50 in assay [7], in [8] and in assay [9] were 3.33 µM, 0.184 µM and 2.63 µM, respectively. In addition, the TGI in assay [1] is 9.16 µM; in [2] it was more than 100 µM; in assay [3] it was 32 µM; in assay [4], more than 100 µM; in assay [5] it was 5.59 µM; in [6], more than 100 µM. Moreover, the TGI is more than 100 µM in [7], 3.61 µM in [8] and more than 100 µM in assay [9].

As for `O=c1cc(O)c2c(O)cc(O)cc2o1`, the TGI in assay [1], in assay [2], in assay [4], in assay [5], in [6] and in assay [7] was more than 100 µM throughout. The TGI in assay [8], in [9] and in [10] was more than 100 µM in each case.

Take `O=C(COc1ccc(-c2nc3cc(Cl)c(Cl)cc3[nH]2)cc1)N=Nc1c(O)[nH]c2ccccc12`: the GI50 in [1] was 1.61 µM; in assay [2], 3.84 µM; in [4], more than 100 µM; in assay [5], 3.62 µM; in [6], 0.675 µM; in [7], 2.33 µM. The GI50 was 1.61 µM in assay [8], 4.97 µM in [9] and 9.12 µM in [10]. Besides, the TGI in assay [1] was 5.68 µM; in assay [2] it was 24.1 µM; in assay [4], more than 100 µM; in [5] it was 18.6 µM; in assay [6], more than 100 µM; in [7] it was 8.5 µM. In addition, the results for the TGI in assay [8], in assay [9] and in [10] were 3.68 µM, more than 100 µM and more than 100 µM, respectively.

For the origin of these results see PubChem BioAssay (NCI).
